In US9708336B2, “Metallo-beta-lactamase inhibitors” (priority 2014, dated 2017):
Where two headings read alike, the source gives them in different places.

Columns and labels:
[1] = test system: Escherichia coli expressing NDM-1 (CLB30005); assay: Antibiotic potentiation activity: synergistic concentration (MITC95) with imipenem, OD600 growth; assay type: cell-based; conditions: for Escherichia coli expressing NDM-1 (CLB 30005) MITC95: concentration giving 95% inhibition of bacterial growth; for Escherichia coli MITC95: Escherichia coli expressing NDM-1 (CLB30005), 95% growth inhibition
In short: (§1)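 Absorbance after a 22–24 h, 35 °C incubation served as the read-out. Wells held bacteria (saline suspension diluted 1:100 into 1.1× CAMHB), imipenem at 4 μg/ml final or optionally 1 μg/ml, and test compound.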

[2] = test system: Serratia marcescens expressing IMP-1 (CL5741); assay: as above; assay type: cell-based; conditions: for Serratia marcescens expressing IMP-1 (CL5741) MITC95: concentration giving 95% inhibition of bacterial growth; for Serratia marcescens MITC95: Serratia marcescens expressing IMP-1 (CL5741), 95% growth inhibition
In short: as §1

[3] = test system: Klebsiella pneumoniae expressing VIM-1 (IHMA599644); assay: as above; assay type: cell-based; conditions: for Klebsiella pneumoniae expressing VIM-1 (IHMA 599644) MITC95: concentration giving 95% inhibition of bacterial growth; for Klebsiella pneumoniae MITC95: Klebsiella pneumoniae expressing VIM-1 (IHMA599644), 95% growth inhibition
In short: as §1

NDM-1 = NDM-1 (Klebsiella pneumoniae, UniProt C7C422); assay: biochemical; assay type: biochemical; conditions: read-out: NDM-1 IC50
VIM-1 = VIM-1 (Pseudomonas aeruginosa (strain ATCC 15692 / DSM 22644 / CIP 104116 / JCM 14847 / LMG 12228 / 1C / PRS 101 / PAO1), UniProt A0A0F7KYQ8); assay: Enzyme activity: determination of IC50, fluorescence assay with CCF2-FA substrate (VIM-1); assay type: biochemical
IMP-1 = IMP-1 (Serratia marcescens, UniProt P52699); assay: biochemical; assay type: biochemical; conditions: read-out: IMP-1 IC50
[4] = fluorescence assay with CCF2-FA substrate
[5] = fluorescence assay with CCF2-FA substrate, read-out: VIM-1 IC50
[6] = NDM-1 enzyme, CCF2-FA fluorescence assay
[7] = VIM-1 enzyme, CCF2-FA fluorescence assay, read-out: VIM-1 IC50
[8] = IMP-1 enzyme, CCF2-FA fluorescence assay

Chain of NDM-1 (C7C422 whole entry, looked up, species assumed): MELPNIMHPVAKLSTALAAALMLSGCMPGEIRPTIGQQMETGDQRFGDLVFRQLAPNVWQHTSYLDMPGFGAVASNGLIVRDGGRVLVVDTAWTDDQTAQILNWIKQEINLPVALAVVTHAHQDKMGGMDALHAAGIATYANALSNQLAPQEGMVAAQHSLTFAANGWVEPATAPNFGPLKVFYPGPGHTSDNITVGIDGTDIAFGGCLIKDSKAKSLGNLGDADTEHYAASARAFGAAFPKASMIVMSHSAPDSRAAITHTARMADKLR
Chain of IMP-1 (P52699 whole entry, looked up): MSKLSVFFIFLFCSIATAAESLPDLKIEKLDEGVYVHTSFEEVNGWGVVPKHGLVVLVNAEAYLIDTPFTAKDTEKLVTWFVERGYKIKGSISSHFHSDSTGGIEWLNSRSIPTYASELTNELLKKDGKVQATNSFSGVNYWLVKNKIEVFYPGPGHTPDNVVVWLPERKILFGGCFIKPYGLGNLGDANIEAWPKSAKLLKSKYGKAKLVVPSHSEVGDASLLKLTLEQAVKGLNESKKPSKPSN

Row | Structure (SMILES) | Escherichia coli expressing NDM-1 (CLB 30005) MITC95 [1] [µM] | Serratia marcescens expressing IMP-1 (CL5741) MITC95 [2] [µM] | Klebsiella pneumoniae expressing VIM-1 (IHMA 599644) MITC95 [3] [µM] | IC50 (NDM-1; [4]) [nM] | IC50 (VIM-1; [5]) [nM] | IC50 (IMP-1; [4]) [nM] | Escherichia coli MITC95 [1] [µM] | Serratia marcescens MITC95 [2] [µM] | Klebsiella pneumoniae MITC95 [3] [µM] | IC50 (NDM-1; [6]) [nM] | IC50 (VIM-1; [7]) [nM] | IC50 (IMP-1; [8]) [nM] | IC50 (VIM-1; VIM-1 IC50, VIM-1 enzyme, CCF2-FA fluorescence assay) [nM]
1 | NS(=O)(=O)c1cccc(-c2ccc(N3CCOCC3)cc2)c1-c1nn[nH]n1 [Example 12] | 3.125 | 6.25 | 200 | 3.47 | 95.7 | 41.8 | – | – | – | – | – | – | –
2 | Cc1ccc(-c2cc(-c3cccc(C(N)=O)c3)cc(S(N)(=O)=O)c2-c2nn[nH]n2)cc1 [Example 295, 4″-methyl-5′-sulfamoyl-4′-(2H-tetrazol-5-yl)-[1,1′:3′,1″-terphenyl]-3-carboxamide] | – | – | – | – | – | – | 1.953 | 1.563 | >200 | 0.637 | 126 | 16.1 | –
3 | COc1cccc(-c2cccc(S(N)(=O)=O)c2-c2nn[nH]n2)n1 [Example 37, 3-(6-methoxypyridin-2-yl)-2-(2H-tetrazol-5-yl)benzenesulfonamide] | 2.344 | 50 | 200 | 26.4 | 206 | 1210 | – | – | – | – | – | – | –
4 | NS(=O)(=O)c1nccc(-c2ccc3c(c2)OCC(=O)N3)c1-c1nn[nH]n1 [Example 205, 4-(3-oxo-3,4-dihydro-2H-benzo[b][1,4]oxazin-7-yl)-3-(2H-tetrazol-5-yl)pyridine-2-sulfonamide] | 0.3906 | 6.25 | 9.375 | 14.3 | 24.1 | 113 | – | – | – | – | – | – | –
5 | NS(=O)(=O)c1cccc(-c2cncs2)c1-c1nn[nH]n1 [Example 44, 2-(2H-tetrazol-5-yl)-3-(1,3-thiazol-5-yl)benzenesulfonamide] | 0.3906 | 12.5 | 37.5 | 34.6 | 294 | 293 | – | – | – | – | – | – | –
6 | Cc1ccc(-c2cccc(S(N)(=O)=O)c2-c2nnn[nH]2)cn1 [Example 299, 3-(6-methylpyridin-3-yl)-2-(1H-tetrazol-5-yl)benzenesulfonamide] | – | – | – | – | – | – | 0.1953 | 18.75 | 37.5 | 11.8 | – | 444 | 110
7 | COC1CCN(C(=O)c2ccc(-c3cccc(S(N)(=O)=O)c3-c3nn[nH]n3)cc2)CC1 [Example 51, 4′-[(4-methoxypiperidin-1-yl)carbonyl]-2-(2H-tetrazol-5-yl)biphenyl-3-sulfonamide] | 9.375 | 31.25 | >200 | 2.74 | 4190 | 27.4 | – | – | – | – | – | – | –
8 | NS(=O)(=O)c1cccc(-c2ccc(C(O)C(F)(F)F)cc2)c1-c1nn[nH]n1 (stereo not drawn) [Example 3, 2(2H-tetrazol-5-yl)4′-(2,2,2-trifluoro-1-hydroxyethyl)biphenyl-3-sulfonamide] | 0.7813 | 1.563 | 200 | 1.49 | 39.9 | 8.92 | – | – | – | – | – | – | –
9 | NS(=O)(=O)c1cccc(C#CCN2CCS(=O)(=O)CC2)c1-c1nn[nH]n1 [Example 148, 3-[3-(1,1-dioxidothiomorpholin-4-yl)prop-1-yn-1-yl]-2-(2H-tetrazol-5-yl)benzenesulfonamide] | 6.25 | 50 | >200 | 131 | 3080 | 550 | – | – | – | – | – | – | –
10 | NS(=O)(=O)c1cccc(-c2ccc(N3CCNCC3)nc2)c1-c1nn[nH]n1 [Example 324, 3-(6-(piperazin-1-yl)pyridin-3-yl)-2-(2H-tetrazol-5-yl)benzenesulfonamide] | – | – | – | – | – | – | 13.28 | 32.81 | 37.5 | 105 | 404 | 1020 | –
